Reference: US20200157086A1, “BENZAMIDE COMPOUNDS AND THEIR USE AS HERBICIDES” (BASF SE, priority 2017, published 2020)

Experiments:
Test in all cases: post-emergence greenhouse test of herbicidal activity
Assay type in all cases: in vivo
Conditions in all cases: application rate 250 g/ha, 100 = complete destruction, 0 = no damage
[1] = system: AMARE (Amaranthus retroflexus)
From the text: (§1) The seeds of the test plants were sown separately for each species. For the post-emergence treatment, the test plants were first grown to a height of 3 to 15 cm, depending on the plant habit, and only then treated with the active ingredients which had been suspended or emulsified in water. For this purpose, the test plants were either sown directly and grown in the same containers, or they were first grown separately as seedlings and transplanted into the test containers a few days prior to treatment. Depending on the species, the plants were kept at 10-25° C. or 20-25° C., respectively. The test period extended over 2 to 4 weeks. During this time, the plants were tended, and their response to the individual treatments was evaluated. Evaluation was carried out using a scale from 0 to 100. 100 means no emergence of the plants, or complete destruction of at least the aerial moieties, and 0 means no damage, or normal course of growth. A good herbicidal activity is given at values of at least 70 and a very good herbicidal activity is given at values of at least 85. At an application rate of 250 g/ha the following compounds were tested in post-emergence tests against: […]

[2] = system: ALOMY (Alopecurus myosuroiedes)
From the text: as §1

[3] = system: ECHCG (Echinocloa crus-galli)
From the text: as §1

[4] = system: CHEAL (Chenopodium album)
From the text: as §1

CCN(C)C(=O)Nc1c(Cl)ccc(C(=O)Nc2nnnn2C)c1C [compound 3, 4-chloro-3-[[ethyl(methyl)carbamoyl]amino]-2-methyl-N-(1-methyltetrazol-5-yl)benzamide]
herbicidal activity against AMARE, scale from 0 to 100 [1]: 100 | herbicidal activity against ALOMY, scale from 0 to 100 [2]: 98 | herbicidal activity against ECHCG, scale from 0 to 100 [3]: 100 | herbicidal activity against CHEAL, scale from 0 to 100 [4]: 100
